Columns and labels:
[1] = tested on: Rhodococcus rhodochrous ATCC #53968; assay: End of digestion: oil and aqueous volumes, acid number by alcoholic alkaline extraction and back titration; type: cell-based; details: one ml of oil, alcoholic alkaline extraction, back titration; acrylic acid value per gram of oil emulsion
Protocol: An oil degrading microorganism was used to evaluate the use of chemical inhibitors to slow the utilization of hydrocarbons in petroleum. In a non-limiting example, three different chemical compounds that have been reported to inhibit beta-oxidation were tested in oil and culture medium on a petroleum sample with a strain of Rhodococcus rhodochrous ATCC #53968 in m9 minimal medium. To test the ability of each chemical inhibitor to slow the consumption of fatty acids a culture of bacteria was grown on a crude oil sample for a period of three days with crude petroleum oil as the only carbon source. Four separate flasks were set up, each with an oil to aqueous media ratio of 1 to 5 (10 ml of crude oil to 50 ml of culture medium). Each of the three chemical inhibitors was added to a separate flask and a fourth flask was allowed to digest without the addition of a chemical inhibitor as a control. The flasks were shaken at a room temperature of about 25° C. under aerobic conditions. The progress of the microbial digestion was monitored by the optical density at 600 nm and by visual inspection of the brown oil color in the aqueous phase. Three days after the addition of inhibitors, or a total of six days of incubation with oil, a small sample of oil (0.31 g) was removed. A second sample of the same size was remover after another 6 days. The organic acids were extracted from each oil sample with 1% NaOH in 70% ethanol. […]
At the end of the experiment the oil and water were separated and the volume determined. […] This would have under reported the amount of methyl esters determined by GC analysis. The amount of aqueous phase was determined to be 22.5 ml for the acrylic acid sample and 46 ml, 48 ml and 47.5 ml for the others. […] The calculated acid number for the uninhibited digestion was 5 mg of KOH per gram. The other two inhibited digestions were analyzed to be 4.5 mg for the 2-bromooctanoic acid and 6.5 for the 2-bromohexadecanoic acid inhibited digestion. The undigested oil was determined to have an acid number of 6.5 mg of KOH by analysis of a one gram sample and a 10 gram sample. […]

[2] = tested on: Rhodococcus rhodochrous ATCC #53968; assay: Growth of bacteria on crude oil with inhibitors, optical density at 600 nm; type: cell-based
Protocol: An oil degrading microorganism was used to evaluate the use of chemical inhibitors to slow the utilization of hydrocarbons in petroleum. In a non-limiting example, three different chemical compounds that have been reported to inhibit beta-oxidation were tested in oil and culture medium on a petroleum sample with a strain of Rhodococcus rhodochrous ATCC #53968 in m9 minimal medium. To test the ability of each chemical inhibitor to slow the consumption of fatty acids a culture of bacteria was grown on a crude oil sample for a period of three days with crude petroleum oil as the only carbon source. Four separate flasks were set up, each with an oil to aqueous media ratio of 1 to 5 (10 ml of crude oil to 50 ml of culture medium). Each of the three chemical inhibitors was added to a separate flask and a fourth flask was allowed to digest without the addition of a chemical inhibitor as a control. The flasks were shaken at a room temperature of about 25° C. under aerobic conditions. The progress of the microbial digestion was monitored by the optical density at 600 nm and by visual inspection of the brown oil color in the aqueous phase. Three days after the addition of inhibitors, or a total of six days of incubation with oil, a small sample of oil (0.31 g) was removed. A second sample of the same size was remover after another 6 days. The organic acids were extracted from each oil sample with 1% NaOH in 70% ethanol. The samples were shaken vigorously for one minute. The aqueous extract material was then extracted with hexane to remove any trace of oil. The samples of extracted organic acids were then dried under vacuum and converted to methyl esters with BF3 in methanol.
Digestion with the bacteria increases the total amount of carboxylic acids in all the samples. The digestions with the chemical beta-oxidation inhibitors produce about the same or a little more total methyl ester peaks than the bacterial digestion without an inhibitor. […] The later eluting peaks increase at a faster rate with the inhibitors than without. For example, the 12 day sample with no inhibitor increase from 5.9 to 45.9 area units for peaks up to 13 minutes. The sample with the acrylic acid inhibitor has an increase of from 5.9 to 43.7 area units, which is less than without inhibitor. The later eluting peaks increase from 3.6 to 14.3 without the inhibitor, but with acrylic acid the later peak areas increase to 22.5 area units. […] After 6 days of digestion the optical density had reached 2.23 for the uninhibited digestion as compared to 0.49 for the acrylic acid inhibited sample and 1.84 for the 2-bromooctanoic acid and 2.4 for the 2-bromohexadeconoic acid. After 12 days of digestion the uninhibited sample had reached 4.0 and the acrylic acid had increased to 1.7 and 2.2 and 2.4 for the other two inhibitors. Therefore, by this experimental analysis one can determine which inhibitors increase the carboxylic acid content or the acid number of the oil fastest with the least amount of oil consumption. The oil consumption can be determined by quantitation of remaining oil or by growth of bacteria were oil is the only carbon source. It appears that all the inhibitors helped reduce the utilization of fatty acids and the consumption of oil while producing an increase in acid number.

[3] = after 6 days of digestion, crude oil only carbon source

Structure (SMILES)	final analysis acid number [1]	optical density [2, 3]	optical density ([2]; after 12 days of digestion)
C=CC(=O)O [AA, acrylic acid]	10 mg KOH per gram	0.49	1.7
CCCCCCC(Br)C(=O)O (stereo not drawn) [Br C8, 2-bromooctanoic acid]	4.5 mg KOH per gram	1.84	2.2

From patent US9290688B2, “Alkaline microbial enhanced oil recovery” (GEO FOSSIL FUELS, LLC, priority 2011, dated 2016)
